# Results: patent US5814488A (priority 1993, dated 1998)
# Where two headings read alike, the source gives them in different places.
# What was measured:
# Haemophilus influenzae = assay: In vitro antibacterial activity against 1108 strains pathogenic bacteria (Table 4); assay type: cell-based; conditions: 8 strains
# Streptococcus faecalis = assay: as above; assay type: cell-based; conditions: Enterococcus faecalis, 33 strains
# bacteria infected mice = assay: In vivo therapeutic effect on bacteria infected mice; conditions: similar to those in vitro
# [1] = tested on: Staphylococcus epidermidis; assay: In vitro antibacterial activity against 1108 strains pathogenic bacteria (Table 4); assay type: cell-based; conditions: 27 strains
# [2] = Acute toxicity, Kunming mice; conditions: versus netilmicin and GM
# [3] = Nephrotoxicity to rat after i.m. administration; conditions: gentamicin at 150 MKD and 100 MKD from seventh day
# [4] = Chronic toxicity, rat i.p. 90 days
# Streptococcus viridans = assay: In vitro antibacterial activity against 1108 strains pathogenic bacteria (Table 4); assay type: cell-based; conditions: 27 strains
# Shigella dysenteriae = assay: as above; assay type: cell-based
# Enterobacter cloacae = assay: as above; assay type: cell-based; conditions: 29 strains
# Streptococcus pneumoniae = assay: as above; assay type: cell-based; conditions: 14 strains
# [5] = tested on: Methicillin resistant S. aureus; assay: as above; assay type: cell-based; conditions: Staphylococcus aureus, 53 strains
# Pseudomonas sp. [6] = assay: Comparison of MIC and MBC (Tables 5 and 6); assay type: cell-based
# Excerpt: (§1) […]. […] […]
# S. aureus = assay: Comparison of MIC and MBC (Tables 5 and 6); assay type: cell-based; conditions: S. aureus, 31 strains
# Excerpt: as §1
# Klebsiella pneumoniae [7] = assay: Comparison of MIC and MBC (Tables 5 and 6); assay type: cell-based
# Excerpt: as §1
# Shigella = assay: Comparison of MIC and MBC (Tables 5 and 6); assay type: cell-based
# Excerpt: as §1
# Escherichia coli [8] = assay: Comparison of MIC and MBC (Tables 5 and 6); assay type: cell-based
# Excerpt: as §1
# Pseudomonas sp. [9] = assay: In vitro antibacterial activity against 1108 strains pathogenic bacteria (Table 4); assay type: cell-based; conditions: 204 strains
# Excerpt: as §1
# Klebsiella pneumoniae [10] = assay: as above; assay type: cell-based
# Excerpt: as §1
# Acinetobacter sp. = assay: as above; assay type: cell-based; conditions: 27 strains
# Excerpt: as §1
# Escherichia coli [11] = assay: as above; assay type: cell-based
# Excerpt: as §1
# Enterobacter aerugenes = assay: as above; assay type: cell-based
# Excerpt: as §1
# Ciltrobacter sp. = assay: as above; assay type: cell-based; conditions: 30 strains
# Excerpt: as §1
# Salmonella typhi = assay: as above; assay type: cell-based; conditions: Salmonella enterica
# Excerpt: as §1
# Proteus mirabilis = assay: as above; assay type: cell-based; conditions: 60 strains
# Excerpt: as §1
# Staphylococcus arueus = assay: as above; assay type: cell-based; conditions: 190 strains
# Serratia sp. = assay: as above; assay type: cell-based; conditions: 30 strains
# Streptococcus pyogenes = assay: as above; assay type: cell-based; conditions: 27 strains
# [12] = guinea pig, in vivo
# [13] = Table 6, Pseudomonas sp., 20 strains, read-out: MBC range
# [14] = Table 5, 20 strains, read-out: MBC50
# [15] = Table 5, 20 strains, read-out: MBC90
# [16] = Table 6, 20 strains, read-out: MBC range
# [17] = Table 6, 20 strains, unit assumed
# [18] = Table 6, 10 strains, read-out: MBC range
# [19] = Enterobacter aerugenes, 27 strains
# [20] = Table 6, 20 strains, read-out: MBC90
compound,measurement,setting,value
CCNC1CC(N)C(OC2OC(CN)CCC2N)C(O)C1OC1OCC(C)(O)C(NC)C1O (stereo not shown),MIC50,Haemophilus influenzae,0.031 mg/L
same,MIC90,Haemophilus influenzae,4 mg/L
same,MIC,Haemophilus influenzae; read-out: MIC range,0.031 to 4 mg/L
same,MIC,Haemophilus influenzae; read-out: Mode MIC,0.031 mg/L
same,MIC50,Streptococcus faecalis,32 mg/L
same,MIC90,Streptococcus faecalis,256 mg/L
same,MIC,Streptococcus faecalis; read-out: MIC range,0.5 to 256 mg/L
same,MIC,Streptococcus faecalis; read-out: Mode MIC,1 mg/L
same,inhibitive and germicide activities in vivo,bacteria infected mice,high inhibitive activities and germicide activities in vivo which are similar to those in vitro
same,MIC50,[1],0.31 mg/L
same,MIC90,[1],1 mg/L
same,MIC,[1]; read-out: MIC range,0.031 to 16 mg/L
same,MIC,[1]; read-out: Mode MIC,0.031 mg/L
same,"acute toxicity, comparison",[2],lower than that of netilmicin obviously and similar to that of GM
same,dead animals,[3],no dead
same,"chronic toxicity, comparison with MCR",[4],not greater than that of MCR
same,MIC50,Streptococcus viridans,1 mg/L
same,MIC90,Streptococcus viridans,4 mg/L
same,MIC,Streptococcus viridans; read-out: MIC range,0.062 to 4 mg/L
same,MIC,Streptococcus viridans; read-out: Mode MIC,2 mg/L
same,MIC50,Shigella dysenteriae,0.25 mg/L
same,MIC90,Shigella dysenteriae,0.5 mg/L
same,MIC,Shigella dysenteriae; read-out: MIC range,0.125 to 64 mg/L
same,MIC,Shigella dysenteriae; read-out: Mode MIC,0.25 mg/L
same,MIC50,Enterobacter cloacae,2 mg/L
same,MIC90,Enterobacter cloacae,64 mg/L
same,MIC,Enterobacter cloacae; read-out: Mode MIC,0.25 mg/L
same,MIC50,Streptococcus pneumoniae,0.25 mg/L
same,MIC90,Streptococcus pneumoniae,4 mg/L
same,MIC,Streptococcus pneumoniae; read-out: MIC range,0.031 to 16 mg/L
same,MIC,Streptococcus pneumoniae; read-out: Mode MIC,0.031 mg/L
same,MIC50,[5],8 mg/L
same,MIC90,[5],32 mg/L
same,MIC,[5]; read-out: MIC range,0.5 to 128 mg/L
same,MIC,[5]; read-out: Mode MIC,8 mg/L
same,MIC50,Pseudomonas sp. [6]; Pseudomonas,1 mg/L
same,MIC90,Pseudomonas sp. [6]; Pseudomonas,4 mg/L
same,MBC,"Pseudomonas sp. [6]; Pseudomonas, read-out: MBC50",2 mg/L
same,MBC,"Pseudomonas sp. [6]; Pseudomonas, read-out: MBC90",8 mg/L
same,MBC,Pseudomonas sp. [6]; [13],0.25 to 16 mg/L
same,MBC90,"Pseudomonas sp. [6]; Table 6, Pseudomonas sp., 20 strains, unit assumed",8 mg/L
same,MBC,"S. aureus; Staphylococcus aureus, Table 5, read-out: MBC50",0.5 mg/L
same,MBC,"S. aureus; Staphylococcus aureus, Table 5, read-out: MBC90",2 mg/L
same,MIC50,"S. aureus; Staphylococcus aureus, Table 5, read-out: MIC50",0.062 mg/L
same,MIC90,"S. aureus; Staphylococcus aureus, Table 5, read-out: MIC90",0.25 mg/L
same,MBC,"S. aureus; Staphylococcus aureus, Table 6, read-out: MBC range",0.062 to 4 mg/L
same,MBC90,"S. aureus; Table 6, unit assumed",2 mg/L
same,MIC50,Klebsiella pneumoniae [7],0.125 mg/L
same,MIC90,Klebsiella pneumoniae [7],0.125 mg/L
same,MBC,Klebsiella pneumoniae [7]; [14],0.25 mg/L
same,MBC,Klebsiella pneumoniae [7]; [15],0.5 mg/L
same,MBC,Klebsiella pneumoniae [7]; [16],0.062 to 1 mg/L
same,MBC90,Klebsiella pneumoniae [7]; [17],0.5 mg/L
same,MIC50,"Shigella; Table 5, 10 strains",0.062 mg/L
same,MBC,"Shigella; Table 5, 10 strains, read-out: MBC50",0.5 mg/L
same,MBC,"Shigella; Table 5, 10 strains, read-out: MBC90",1 mg/L
same,MIC90,"Shigella; Table 5, 10 strains, read-out: MIC90",0.125 mg/L
same,MBC,Shigella; [18],0.125 to 1 mg/L
same,MBC90,"Shigella; Table 6, 10 strains, unit assumed",1 mg/L
same,MIC50,Escherichia coli [8],0.125 mg/L
same,MBC,Escherichia coli [8]; [14],0.25 mg/L
same,MBC,Escherichia coli [8]; [15],1 mg/L
same,MIC90,"Escherichia coli [8]; Table 5, 20 strains, read-out: MIC90",0.5 mg/L
same,MBC90,Escherichia coli [8]; [17],1 mg/L
same,MBC,Escherichia coli [8]; read-out: MBC range,0.125 to 8 mg/L
same,MIC50,Pseudomonas sp. [9],8 mg/L
same,MIC90,Pseudomonas sp. [9],> 256 mg/L
same,MIC,Pseudomonas sp. [9]; read-out: Mode MIC,8 mg/L
same,MIC50,Klebsiella pneumoniae [10],0.125 mg/L
same,MIC90,Klebsiella pneumoniae [10]; 115 strains,8 mg/L
same,MIC range,"Klebsiella pneumoniae [10]; 115 strains, in µg/mL (unit assumed)",0.062-128
same,MIC,Klebsiella pneumoniae [10]; read-out: Mode MIC,0.125 mg/L
same,MIC50,Acinetobacter sp.,0.5 mg/L
same,MIC90,Acinetobacter sp.,256 mg/L
same,MIC range,Acinetobacter sp.; in µg/mL (unit assumed),0.125-256
same,MIC,Acinetobacter sp.; read-out: Mode MIC,0.25 mg/L
same,MIC50,Escherichia coli [11]; 146 strains,0.25 mg/L
same,MIC90,Escherichia coli [11]; 146 strains,16 mg/L
same,MIC,"Escherichia coli [11]; 146 strains, read-out: Mode MIC",0.25 mg/L
same,MIC,Escherichia coli [11]; read-out: MIC range,0.125 to 64 mg/L
same,MIC50,Enterobacter aerugenes; [19],0.25 mg/L
same,MIC90,Enterobacter aerugenes; [19],16 mg/L
same,MIC,"Enterobacter aerugenes; Enterobacter aerugenes, 27 strains, read-out: MIC range",0.062 to 32 mg/L
same,MIC,"Enterobacter aerugenes; Enterobacter, read-out: Mode MIC",0.125 mg/L
same,MIC50,Ciltrobacter sp.,0.25 mg/L
same,MIC90,Ciltrobacter sp.,16 mg/L
same,MIC range,Ciltrobacter sp.; in µg/mL (unit assumed),0.125-128
same,MIC,Ciltrobacter sp.; read-out: Mode MIC,0.25 mg/L
same,MIC50,Salmonella typhi,0.5 mg/L
same,MIC90,Salmonella typhi,8 mg/L
same,MIC,Salmonella typhi; read-out: MIC range,0.062 to 32 mg/L
same,MIC,Salmonella typhi; read-out: Mode MIC,0.5 mg/L
same,MIC50,Proteus mirabilis,0.5 mg/L
same,MIC90,Proteus mirabilis,2 mg/L
same,MIC range,Proteus mirabilis; in µg/mL (unit assumed),0.125-128
same,MIC,Proteus mirabilis; read-out: Mode MIC,0.5 mg/L
same,MIC50,Staphylococcus arueus,1 mg/L
same,MIC90,Staphylococcus arueus,16 mg/L
same,MIC range,Staphylococcus arueus; in µg/mL (unit assumed),0.031-128
same,MIC,Staphylococcus arueus; read-out: Mode MIC,0.062 mg/L
same,MIC50,Serratia sp.,0.5 mg/L
same,MIC90,Serratia sp.,32 mg/L
same,MIC range,Serratia sp.; in µg/mL (unit assumed),0.062-256
same,MIC,Serratia sp.; read-out: Mode MIC,0.5 mg/L
same,MIC50,Streptococcus pyogenes,1 mg/L
same,MIC90,Streptococcus pyogenes,32 mg/L
same,MIC,Streptococcus pyogenes; read-out: MIC range,0.25 to 128 mg/L
same,MIC,Streptococcus pyogenes; read-out: Mode MIC,1 mg/L
NCC[C@H](O)C(=O)N[C@@H]1C[C@H](N)[C@@H](O[C@H]2O[C@H](CN)[C@@H](O)[C@H](O)[C@H]2O)[C@H](O)[C@H]1O[C@H]1O[C@H](CO)[C@@H](O)[C@H](N)[C@H]1O [Amikacin],ABR threshold,[12],increases of ABR threshold were observed
same,auditory function,[12],nearly all the auditory function of the animals were lost
same,dead animals,[3],no dead
same,MBC,"Pseudomonas sp. [6]; Table 6, Pseudomonas sp., 20 strains, read-out: MBC90",64 mg/L
same,MBC,Pseudomonas sp. [6]; [13],1 to 64 mg/L
same,MBC,"S. aureus; Staphylococcus aureus, Table 6, read-out: MBC90",32 mg/L
same,MBC range,"S. aureus; Table 6, in µg/mL (unit assumed)",0.125-128
same,MBC,Klebsiella pneumoniae [7]; [20],1 mg/L
same,MBC,Klebsiella pneumoniae [7]; [16],0.125 to 2 mg/L
same,MBC,"Shigella; Table 6, 10 strains, read-out: MBC90",0.5 mg/L
same,MBC,Shigella; [18],0.25 to 1 mg/L
same,MBC,Escherichia coli [8]; [20],2 mg/L
same,MBC,Escherichia coli [8]; [16],0.25 to 8 mg/L
